Paper PMC6851181 (Scientific Reports, 2019)
Where two headings read alike, the source gives them in different places.

Legend:
[1] = Mouse IF pharmacokinetic study: plasma IF by HPLC, alone or after GFJ or naringin pre-administration; format: in vivo, ICR male mice
Method: For the study, 7 groups with 12 animals each were intragastrically (ig) administered with 300 mg/kg of IF. Then, we obtained 1 mL of blood by cardiac puncture at 2.5, 5, 7.5, 10, 20, 30, and 60 min post-administration.
Blood samples were immediately centrifuged at 3500 rpm. Aliquots of 250 µL were stored at −70 °C until the quantification of IF plasmatic concentrations was carried out.
Besides in our research, 7 groups with 12 animals each were ig administered with naringin (250 mg/kg) to evaluate its influence on the concentration/time profiles of IF, a chemical that was ig administered 60 min later (300 mg/kg). Seven other groups were ig administered GFJ (20.8 µL/g) and 60 min later ig treated with 300 mg/kg of IF. In both assays, we obtained blood samples at 2.5, 5, 7.5, 10, 20, 30, and 60 min post-administration. With the indicated design we examined the influence of GFJ or naringin on the concentration/time profiles of IF.
For the blood treatment, after thawing, we added 250 μL of the internal standard (CF) to each sample, after which the plasma was deproteinized with methanol 1:1.5 (plasma-methanol), and centrifuged at 3500 rpm for 10 min. Subsequently, we transferred 450 μL of the supernatant to an Eppendorf tube containing 550 μL of phosphate buffer 0.01 N, pH 4.0. The solution was activated with 1 mL of methanol plus 1 mL of phosphate buffer 0.01 N, pH 4.0, and loaded to a Bond Elut-CH cartridge under reduced pressure. The cartridge was washed with 1 mL of acetonitrile plus phosphate buffer 0.01 N, pH 4.0 (10–90%) and it was eluted with 500 μL of acetonitrile plus phosphate buffer 0.025 N, pH 4.0 (40–60%). A volume of 20 μL were injected in the stabilized HPLC system.
The pharmacokinetic parameters of IF and their interaction with naringin or GFJ were calculated by non-compartmental assessment of data using the computer program WinNonlin (V4.0, Pharsight, Mountain View, CA, USA). The maximum plasma concentrations (Cmax) and their time of occurrence (Tmax) were both obtained directly from the measured data. The area under the plasma concentration-time curve, from time zero to the time of the last measurable concentration (AUC0-t) was calculated with the linear trapezoidal method. AUC0-∞ was calculated AUC0-t + Ct/λz, where Ct is the last measurable concentration and λz the constant rate of terminal elimination. The corresponding half-life elimination (t1/2) was then calculated as 0.693/λz. The results corresponding to Cmax were statistically analyzed with the ANOVA and the Student-Newman-Keuls tests. With respect to AUC0-t, Tmax, and t1/2 the analysis was made with the Kruskal-Wallis test.

[2] = Stability of IF in the plasma of mouse under various storage conditions (HPLC); format: in vitro ADME; details: n = 3
Method: The short-term stability was determined after the exposure of the spiked samples to room temperature for 24 h. The long-term stability was evaluated after storage of the standard spiked plasma samples at −70 °C for 30 days. The freeze/thaw cycle stability was assessed after two complete freeze/thaw cycles (−70 to 25 °C) on consecutive days. The analytes were considered to be stable in plasma when 85–115% of the initial concentrations were found.
Chromatography conditions for the study were as follows: the mobile phase consisted of acetonitrile, potassium phosphate buffer 0.025 M at pH 4.0, and triethylamine (12:88:0.025, v/v) with a final pH of 6.2. The flow-rate was 1.2 mL/min. The analytical column was operated at ambient temperature. The HPLC system consisted of a Beckman System Gold, 128 Solvent Module with ultra-violet detection at 200 nm. We used a 3.5 μm Xterra RP-8 (4.6 × 150 mm) column. Data were collected by the HPLC system and transferred to a Dell Pentium computer.

[3] = IF only, 300 mg/kg ig, mouse plasma, 300 mg/kg
[4] = male, ICR, mouse, plasma, po, 300 mg/kg, GFJ 20.8 µL/g ig 1 h before IF 300 mg/kg ig, mouse plasma
[5] = male, ICR, mouse, plasma, po, 300 mg/kg, IF only, 300 mg/kg ig, mouse plasma
[6] = male, ICR, mouse, plasma, po, 300 mg/kg, naringin 250 mg/kg ig 1 h before IF 300 mg/kg ig, mouse plasma

C[C@@H]1O[C@@H](O[C@H]2[C@H](Oc3cc(O)c4c(c3)O[C@H](c3ccc(O)cc3)CC4=O)O[C@H](CO)[C@@H](O)[C@@H]2O)[C@H](O)[C@H](O)[C@H]1O [naringin, 4′,5,5-trihdroxy-flavanone-7-rhamnoglucoside]
Change of half-life (t1/2) of IF with respect to IF alone ([1]; naringin 250 mg/kg ig 1 h before IF 300 mg/kg ig, mouse): no change
Difference of AUC0−∞ of IF with respect to IF alone ([1]; naringin 250 mg/kg or GFJ 20.8 µL/g ig 1 h before IF 300 mg/kg ig, mouse): no statistical difference

O=P1(NCCCl)OCCCN1CCCl (stereo not drawn) [IF, ifosfamide]
Concentration found ([2]; freeze and thaw stability (−70 to 25 °C), two cycles, added 90 μg/mL): 81.34 ± 4.99 µg/mL
Concentration found ([2]; long-term (30 days, −70 °C), added 90 μg/mL): 108.34 ± 1.64 µg/mL
Concentration found ([2]; short-term (24 h, 25 °C), added 10 μg/mL): 12.31 ± 0.68 µg/mL
Concentration found ([2]; short-term (24 h, 25 °C), added 90 μg/mL): 100.11 ± 14.27 µg/mL
Cmax ([1]; GFJ 20.8 µL/g ig 1 h before IF 300 mg/kg ig, mouse plasma): 71.35 ± 3.57^a♣ μg/mL
AUC0−∞ [1, 3]: 2110.36 ± 114.98 µg·min/mL
Cmax [1, 3]: 58080 ± 5010 ng/mL
Tmax [1, 3]: 10.83 ± 1.28 min
t1/2 [1, 3]: 23.55 ± 1.86 min
AUC(0-inf) [1, 4]: 34200 ng·h/mL
half-life [1, 4]: 16.5 ± 1.43 min
Cmax ([1]; male, ICR, mouse, plasma, po, 300 mg/kg, GFJ 20.8 µL/g ig 1 h before IF 300 mg/kg ig, mouse plasma, read-out: Cmax): 71300 ng/mL
Tmax ([1]; male, ICR, mouse, plasma, po, 300 mg/kg, GFJ 20.8 µL/g ig 1 h before IF 300 mg/kg ig, mouse plasma, read-out: Tmax (converted)): 8.7 min
AUC(0-inf) [1, 5]: 35200 ng·h/mL
half-life [1, 5]: 23.5 min
Cmax ([1]; male, ICR, mouse, plasma, po, 300 mg/kg, IF only, 300 mg/kg ig, mouse plasma, read-out: Cmax): 58100 ng/mL
Tmax ([1]; male, ICR, mouse, plasma, po, 300 mg/kg, IF only, 300 mg/kg ig, mouse plasma, read-out: Tmax (converted)): 10.8 min
AUC(0-inf) [1, 6]: 37400 ng·h/mL
half-life [1, 6]: 26.8 ± 3.77 min
Cmax ([1]; male, ICR, mouse, plasma, po, 300 mg/kg, naringin 250 mg/kg ig 1 h before IF 300 mg/kg ig, mouse plasma, read-out: Cmax): 64100 ± 4370 ng/mL
Tmax ([1]; male, ICR, mouse, plasma, po, 300 mg/kg, naringin 250 mg/kg ig 1 h before IF 300 mg/kg ig, mouse plasma, read-out: Tmax (converted)): 5 min
Cmax ([1]; male, ICR, mouse, plasma, po, naringin 250 mg/kg ig 1 h before IF 300 mg/kg ig, mouse plasma, read-out: Cmax): 64100 ng/mL
